Test results: ChEMBL document CHEMBL3627608, “Crystal structures of human RIP2 kinase catalytic domain complexed with ATP-competitive inhibitors: Foundations for understanding inhibitor selectivity” (Bioorg Med Chem, 2015)

What was measured:
[1] = molecular target: Tyrosine-protein kinase CSK (Homo sapiens) (UniProt P41240); assay: Inhibition of CSK (unknown origin) at 10 uM after 120 mins P33 radiolabeled kinase activity assay
[2] = molecular target: T1, Serine/threonine-protein kinase TAO3 (Homo sapiens) (UniProt Q9H2K8); assay: Inhibition of TAOK3 (unknown origin) at 10 uM after 120 mins P33 radiolabeled kinase activity assay
T1 sequence (whole entry): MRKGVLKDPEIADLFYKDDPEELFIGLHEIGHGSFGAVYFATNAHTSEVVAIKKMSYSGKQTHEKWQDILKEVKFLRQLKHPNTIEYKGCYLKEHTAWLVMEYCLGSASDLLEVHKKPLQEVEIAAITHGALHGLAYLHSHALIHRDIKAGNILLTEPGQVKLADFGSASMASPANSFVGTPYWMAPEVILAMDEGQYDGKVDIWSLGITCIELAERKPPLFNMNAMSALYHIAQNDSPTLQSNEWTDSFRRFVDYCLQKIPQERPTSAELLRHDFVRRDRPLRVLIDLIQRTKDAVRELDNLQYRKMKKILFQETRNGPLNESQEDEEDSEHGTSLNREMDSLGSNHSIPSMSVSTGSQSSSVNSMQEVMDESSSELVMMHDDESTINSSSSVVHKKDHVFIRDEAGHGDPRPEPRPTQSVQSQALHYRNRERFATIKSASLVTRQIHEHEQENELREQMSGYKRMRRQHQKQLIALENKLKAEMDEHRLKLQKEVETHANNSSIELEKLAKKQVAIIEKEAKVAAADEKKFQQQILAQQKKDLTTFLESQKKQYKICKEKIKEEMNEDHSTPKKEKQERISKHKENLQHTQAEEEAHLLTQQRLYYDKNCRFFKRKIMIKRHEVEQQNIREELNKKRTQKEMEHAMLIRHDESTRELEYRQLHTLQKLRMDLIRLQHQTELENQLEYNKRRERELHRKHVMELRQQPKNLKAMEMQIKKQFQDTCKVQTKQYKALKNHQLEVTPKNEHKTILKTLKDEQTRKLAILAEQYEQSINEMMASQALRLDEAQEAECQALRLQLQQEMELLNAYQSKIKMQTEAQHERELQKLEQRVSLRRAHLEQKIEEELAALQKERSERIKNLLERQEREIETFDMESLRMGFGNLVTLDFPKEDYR

[3] = molecular target: Dual specificity testis-specific protein kinase 1 (Homo sapiens) (UniProt Q15569); assay: Inhibition of TESK1 (unknown origin) at 10 uM after 120 mins P33 radiolabeled kinase activity assay
Dual specificity testis-specific protein kinase 1 (Homo sapiens), sequence (Q15569 whole entry, looked up): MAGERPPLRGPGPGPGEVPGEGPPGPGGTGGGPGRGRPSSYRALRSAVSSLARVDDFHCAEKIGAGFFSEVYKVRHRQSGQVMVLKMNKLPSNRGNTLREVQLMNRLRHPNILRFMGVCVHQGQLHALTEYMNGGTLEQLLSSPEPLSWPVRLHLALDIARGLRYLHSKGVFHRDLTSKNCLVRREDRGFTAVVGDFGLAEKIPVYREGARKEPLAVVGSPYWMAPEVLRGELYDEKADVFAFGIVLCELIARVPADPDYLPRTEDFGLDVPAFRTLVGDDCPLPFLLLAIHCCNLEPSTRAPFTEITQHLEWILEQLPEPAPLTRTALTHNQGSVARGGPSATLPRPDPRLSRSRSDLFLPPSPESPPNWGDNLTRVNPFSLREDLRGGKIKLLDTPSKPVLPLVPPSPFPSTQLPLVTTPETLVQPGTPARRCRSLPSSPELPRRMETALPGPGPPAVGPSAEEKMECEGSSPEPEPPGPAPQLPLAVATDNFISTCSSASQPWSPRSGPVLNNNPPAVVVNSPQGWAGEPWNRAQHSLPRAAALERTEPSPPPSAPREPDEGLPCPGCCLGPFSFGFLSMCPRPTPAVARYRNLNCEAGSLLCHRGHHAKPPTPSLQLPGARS

[4] = molecular target: Protein kinase C eta type (Homo sapiens) (UniProt P24723); assay: Inhibition of PKCeta (unknown origin) at 10 uM after 120 mins P33 radiolabeled kinase activity assay
Protein kinase C eta type (Homo sapiens), sequence (P24723 whole entry): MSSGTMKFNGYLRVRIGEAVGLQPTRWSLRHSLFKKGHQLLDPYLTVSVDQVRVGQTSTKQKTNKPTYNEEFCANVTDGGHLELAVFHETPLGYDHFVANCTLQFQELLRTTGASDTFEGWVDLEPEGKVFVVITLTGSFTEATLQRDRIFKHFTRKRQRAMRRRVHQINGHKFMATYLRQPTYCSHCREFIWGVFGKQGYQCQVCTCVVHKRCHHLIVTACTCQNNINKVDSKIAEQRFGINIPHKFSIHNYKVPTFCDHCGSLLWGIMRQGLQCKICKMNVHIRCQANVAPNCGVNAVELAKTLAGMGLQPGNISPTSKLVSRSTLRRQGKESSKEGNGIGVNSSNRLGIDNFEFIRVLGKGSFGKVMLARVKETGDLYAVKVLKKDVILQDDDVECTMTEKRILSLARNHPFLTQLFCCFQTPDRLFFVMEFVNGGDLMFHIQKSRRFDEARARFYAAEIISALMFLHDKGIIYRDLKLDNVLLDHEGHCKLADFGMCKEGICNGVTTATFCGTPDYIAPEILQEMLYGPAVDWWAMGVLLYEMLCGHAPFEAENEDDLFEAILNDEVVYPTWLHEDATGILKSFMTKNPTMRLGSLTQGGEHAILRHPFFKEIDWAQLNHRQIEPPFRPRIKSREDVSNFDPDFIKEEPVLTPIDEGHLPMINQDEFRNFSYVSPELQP

[5] = molecular target: Fibroblast growth factor receptor 3 (Homo sapiens) (UniProt P22607); assay: Inhibition of FGFR3 (unknown origin) at 10 uM after 120 mins P33 radiolabeled kinase activity assay
Fibroblast growth factor receptor 3 (Homo sapiens), sequence (P22607 23-806 limits assumed): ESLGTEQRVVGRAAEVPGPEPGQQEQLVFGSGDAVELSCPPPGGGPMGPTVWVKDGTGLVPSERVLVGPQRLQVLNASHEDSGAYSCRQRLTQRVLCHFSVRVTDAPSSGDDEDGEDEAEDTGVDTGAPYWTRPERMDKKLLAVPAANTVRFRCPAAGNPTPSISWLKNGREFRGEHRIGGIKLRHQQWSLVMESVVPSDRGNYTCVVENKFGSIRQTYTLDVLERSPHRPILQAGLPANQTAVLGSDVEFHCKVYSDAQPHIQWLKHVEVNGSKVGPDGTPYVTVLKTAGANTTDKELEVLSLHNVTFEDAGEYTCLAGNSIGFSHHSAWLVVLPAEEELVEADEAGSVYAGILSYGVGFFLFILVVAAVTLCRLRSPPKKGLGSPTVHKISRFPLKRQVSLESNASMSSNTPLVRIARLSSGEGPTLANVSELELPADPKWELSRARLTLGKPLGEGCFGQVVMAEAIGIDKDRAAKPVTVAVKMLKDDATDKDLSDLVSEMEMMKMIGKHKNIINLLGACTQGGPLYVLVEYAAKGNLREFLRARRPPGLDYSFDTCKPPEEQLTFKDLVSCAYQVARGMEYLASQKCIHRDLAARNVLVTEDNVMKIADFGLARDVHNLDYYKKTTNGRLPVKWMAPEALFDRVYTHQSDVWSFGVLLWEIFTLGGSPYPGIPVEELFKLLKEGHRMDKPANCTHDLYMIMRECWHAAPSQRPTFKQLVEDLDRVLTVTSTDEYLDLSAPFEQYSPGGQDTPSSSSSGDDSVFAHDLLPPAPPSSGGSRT

[6] = molecular target: Casein kinase I isoform delta (Homo sapiens) (UniProt P48730); assay: Inhibition of CK1delta (unknown origin) at 10 uM after 120 mins P33 radiolabeled kinase activity assay
Casein kinase I isoform delta (Homo sapiens), sequence (P48730 whole entry, looked up, canonical isoform): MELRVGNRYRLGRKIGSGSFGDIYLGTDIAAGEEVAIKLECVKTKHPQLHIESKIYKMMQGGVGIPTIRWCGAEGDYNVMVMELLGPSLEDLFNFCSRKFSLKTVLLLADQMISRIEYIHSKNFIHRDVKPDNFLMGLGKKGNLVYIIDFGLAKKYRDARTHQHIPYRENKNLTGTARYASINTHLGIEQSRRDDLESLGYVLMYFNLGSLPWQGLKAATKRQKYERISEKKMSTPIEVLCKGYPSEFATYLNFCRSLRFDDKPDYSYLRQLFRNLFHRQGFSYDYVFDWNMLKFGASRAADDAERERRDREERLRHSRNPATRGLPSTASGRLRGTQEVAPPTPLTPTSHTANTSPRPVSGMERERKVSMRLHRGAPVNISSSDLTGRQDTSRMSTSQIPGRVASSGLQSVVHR

[7] = molecular target: Focal adhesion kinase 1 (Homo sapiens) (UniProt Q05397); assay: Inhibition of FAK (unknown origin) at 10 uM after 120 mins P33 radiolabeled kinase activity assay
[8] = molecular target: Ephrin type-A receptor 4 (Homo sapiens) (UniProt P54764); assay: Inhibition of EPHA4 (unknown origin) at 10 uM after 120 mins P33 radiolabeled kinase activity assay
[9] = molecular target: Macrophage colony-stimulating factor 1 receptor (Homo sapiens) (UniProt P07333); assay: Inhibition of FMS (unknown origin) at 10 uM after 120 mins P33 radiolabeled kinase activity assay
Macrophage colony-stimulating factor 1 receptor (Homo sapiens), sequence (P07333 whole entry): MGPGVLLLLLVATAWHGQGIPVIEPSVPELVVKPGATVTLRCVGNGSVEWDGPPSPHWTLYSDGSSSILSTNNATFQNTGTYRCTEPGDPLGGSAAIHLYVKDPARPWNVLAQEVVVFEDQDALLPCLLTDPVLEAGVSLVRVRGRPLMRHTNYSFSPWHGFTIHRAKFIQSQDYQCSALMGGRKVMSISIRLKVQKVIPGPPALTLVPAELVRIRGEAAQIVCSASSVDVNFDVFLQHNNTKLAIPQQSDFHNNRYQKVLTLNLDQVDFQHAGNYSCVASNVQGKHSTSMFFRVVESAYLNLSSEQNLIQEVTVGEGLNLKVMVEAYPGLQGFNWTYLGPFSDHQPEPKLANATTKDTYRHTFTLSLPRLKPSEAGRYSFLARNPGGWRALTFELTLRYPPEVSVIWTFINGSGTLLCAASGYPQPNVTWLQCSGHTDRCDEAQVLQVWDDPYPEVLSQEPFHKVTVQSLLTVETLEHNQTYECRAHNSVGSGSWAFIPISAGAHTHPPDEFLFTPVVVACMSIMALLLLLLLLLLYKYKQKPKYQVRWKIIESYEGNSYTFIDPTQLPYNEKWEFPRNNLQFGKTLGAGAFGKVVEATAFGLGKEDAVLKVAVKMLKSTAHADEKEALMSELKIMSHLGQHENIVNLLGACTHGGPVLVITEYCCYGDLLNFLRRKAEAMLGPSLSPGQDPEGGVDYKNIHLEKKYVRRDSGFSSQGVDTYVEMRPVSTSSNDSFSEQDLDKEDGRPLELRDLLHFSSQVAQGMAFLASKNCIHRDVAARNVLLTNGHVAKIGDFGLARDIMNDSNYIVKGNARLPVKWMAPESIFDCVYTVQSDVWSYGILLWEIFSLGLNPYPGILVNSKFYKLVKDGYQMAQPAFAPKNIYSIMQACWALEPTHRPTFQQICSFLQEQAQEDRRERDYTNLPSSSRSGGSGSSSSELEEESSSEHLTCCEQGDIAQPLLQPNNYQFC

[10] = molecular target: Calcium/calmodulin-dependent protein kinase type 1D (Homo sapiens) (UniProt Q8IU85); assay: Inhibition of CAMK1delta (unknown origin) at 10 uM after 120 mins P33 radiolabeled kinase activity assay
Calcium/calmodulin-dependent protein kinase type 1D (Homo sapiens), sequence (Q8IU85 whole entry, looked up): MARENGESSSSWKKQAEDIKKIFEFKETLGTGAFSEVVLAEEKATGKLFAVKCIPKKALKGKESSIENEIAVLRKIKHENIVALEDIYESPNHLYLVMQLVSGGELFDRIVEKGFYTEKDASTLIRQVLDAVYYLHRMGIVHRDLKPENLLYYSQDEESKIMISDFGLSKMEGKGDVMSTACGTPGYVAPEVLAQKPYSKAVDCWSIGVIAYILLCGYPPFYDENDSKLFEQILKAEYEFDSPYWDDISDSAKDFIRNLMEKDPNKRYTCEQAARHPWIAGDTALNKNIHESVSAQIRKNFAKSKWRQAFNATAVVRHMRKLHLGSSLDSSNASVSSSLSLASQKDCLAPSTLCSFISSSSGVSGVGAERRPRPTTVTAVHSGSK

[11] = molecular target: T2, Ephrin type-A receptor 6 (Homo sapiens) (UniProt Q9UF33); assay: Inhibition of EPHA6 (unknown origin) at 10 uM after 120 mins P33 radiolabeled kinase activity assay
T2 sequence (whole entry): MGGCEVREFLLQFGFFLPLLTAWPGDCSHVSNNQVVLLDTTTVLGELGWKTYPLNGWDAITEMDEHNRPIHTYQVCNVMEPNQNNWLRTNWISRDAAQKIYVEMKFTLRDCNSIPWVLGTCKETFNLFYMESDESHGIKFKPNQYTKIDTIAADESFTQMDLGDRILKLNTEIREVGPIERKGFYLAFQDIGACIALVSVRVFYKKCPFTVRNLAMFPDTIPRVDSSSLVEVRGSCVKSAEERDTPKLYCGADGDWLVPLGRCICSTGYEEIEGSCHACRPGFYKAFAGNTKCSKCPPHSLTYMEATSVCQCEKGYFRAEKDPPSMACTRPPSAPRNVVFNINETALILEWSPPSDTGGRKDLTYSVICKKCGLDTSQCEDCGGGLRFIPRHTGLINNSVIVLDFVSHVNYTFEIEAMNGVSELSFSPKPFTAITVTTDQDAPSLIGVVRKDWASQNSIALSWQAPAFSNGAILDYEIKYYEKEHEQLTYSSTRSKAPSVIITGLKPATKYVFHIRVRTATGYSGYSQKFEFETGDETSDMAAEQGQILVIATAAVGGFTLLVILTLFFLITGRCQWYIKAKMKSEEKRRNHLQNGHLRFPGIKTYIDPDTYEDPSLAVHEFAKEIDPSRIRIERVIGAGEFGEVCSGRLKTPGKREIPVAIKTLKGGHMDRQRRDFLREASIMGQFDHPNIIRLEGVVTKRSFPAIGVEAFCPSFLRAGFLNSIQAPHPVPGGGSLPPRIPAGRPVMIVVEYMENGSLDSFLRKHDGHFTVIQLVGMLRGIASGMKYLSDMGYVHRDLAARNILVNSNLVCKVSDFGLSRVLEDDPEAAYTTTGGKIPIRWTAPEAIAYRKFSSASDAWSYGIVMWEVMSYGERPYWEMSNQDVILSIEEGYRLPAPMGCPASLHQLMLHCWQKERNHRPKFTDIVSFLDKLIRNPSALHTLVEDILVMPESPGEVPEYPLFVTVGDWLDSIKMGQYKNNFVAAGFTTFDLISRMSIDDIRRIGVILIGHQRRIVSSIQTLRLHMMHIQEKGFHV

[12] = molecular target: Ephrin type-A receptor 2 (Homo sapiens) (UniProt P29317); assay: Inhibition of EPHA2 (unknown origin) at 10 uM after 120 mins P33 radiolabeled kinase activity assay

Tyrosine-protein kinase CSK (Homo sapiens), sequence (P41240 2-450 limits assumed): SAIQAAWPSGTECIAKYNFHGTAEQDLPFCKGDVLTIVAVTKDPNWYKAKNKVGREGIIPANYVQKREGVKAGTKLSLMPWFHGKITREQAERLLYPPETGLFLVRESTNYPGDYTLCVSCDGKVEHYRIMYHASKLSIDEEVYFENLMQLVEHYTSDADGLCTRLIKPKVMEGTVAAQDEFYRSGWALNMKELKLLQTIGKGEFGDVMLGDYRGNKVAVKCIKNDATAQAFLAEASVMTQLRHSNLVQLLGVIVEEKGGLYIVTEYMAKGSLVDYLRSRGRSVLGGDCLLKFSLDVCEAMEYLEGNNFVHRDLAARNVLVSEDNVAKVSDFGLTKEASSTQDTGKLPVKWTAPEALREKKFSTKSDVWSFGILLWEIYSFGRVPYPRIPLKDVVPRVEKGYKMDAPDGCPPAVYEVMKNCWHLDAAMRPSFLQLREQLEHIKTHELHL

inhibition [1]	inhibition [2]	inhibition [3]	inhibition [4]	inhibition [5]	inhibition [6]	inhibition [7]	inhibition [8]	inhibition [9]	inhibition [10]	inhibition [11]	inhibition [12]	Structure (SMILES)
100%	26.7%	97%	-5.94%	51.2%	20.5%	15%	70.5%	43.9%	76.3%	95.8%	68%	CS(=O)(=O)c1cccc(Nc2nccc(-c3sc(N4CCOCC4)nc3-c3cccc(NS(=O)(=O)c4c(F)cccc4F)c3)n2)c1
15.6%	-0.26%	4.86%	0.75%	8.78%	77.8%	0.5%	14.3%	5.32%	3.59%	31.7%	19.6%	COCCNC(=O)c1ccc2c(c1)nc(-c1cnc(-c3ccc(Cl)cc3)[nH]1)n2CCOC
78.4%	51%	20%	-2.64%	72.3%	13.5%	11.7%	97%	98.2%	8.06%	93.7%	97.3%	CC(C)(C)c1cc(NC(=O)Nc2ccc(Oc3ccncc3)cc2)no1
